Marks after values point to notes of the source that are not given here.
Experiments:
[1] = system: HBL-100 non-tumour line from healthy mammary ductal epithelium; assay: In-vitro antiproliferative activity, MTT test; assay type: cell-based, human; conditions: 5 days treatment, MTT on day 6, read-out: IC50, concentration necessary to reduce cell growth to 50% of control
Procedure: (§1) Antiproliferative activity of the conjugates was determined on 2 lines of human mammary carcinoma (MCF-7, MDA-MB-231), and on 2 lines of human ovary carcinoma (SK-OV-3, IGR-OV1) with different Reduced Folate Carrier (RFC) expression, and on a non-tumour line originating from healthy mammary ductal epithelium (HBL-100 line). Cells were incubated in 96-well plates for 5 days in complete medium (consisting of DMEM/F12, with 10% FBS, foetal bovine serum, 1% L-glutamine 100× (200 mM) and 1% penicillin-streptomycin (Euroclone) for MCF-7, IGROV-1 and MDA-MB-231; RPMI-1640 with 10% FBS, foetal bovine serum, 1% L-glutamine 100× (200 mM) and 1% penicillin-streptomycin (Euroclone) for SKOV-1; McCoy's with 10% FBS, foetal bovine serum, 1% L-glutamine 100× (200 mM) and 1% penicillin-streptomycin (Sigma) for HBL-100 at 37° C. and controlled atmosphere (5% CO2), with MTX-Na or with conjugate; the conjugates were tested at doses equimolar with those of MTX-Na, in the range 1-30 nM. Cytotoxicity was determined on day 6 (after 5 days treatments) by the MTT test, by measuring cell viability as the cell metabolic capacity to transform the tetrazolium salt of MTT in the blue formazan, by mitochondrial dehydrogenases; the blue colour is read at 570 nm with a spectrophotometer. The following conjugates were tested.

[2] = system: IGR-OV1 human ovary carcinoma cells; assay: In-vitro antiproliferative activity, MTT test; assay type: cell-based; conditions: 5 days treatment, MTT on day 6, read-out: IC50, concentration necessary to reduce cell growth to 50% of control
Procedure: as §1

[3] = system: SK-OV-3 human ovary carcinoma cells; assay: In-vitro antiproliferative activity, MTT test; assay type: cell-based; conditions: 5 days treatment, MTT on day 6, read-out: IC50, concentration necessary to reduce cell growth to 50% of control
Procedure: as §1

[4] = system: MCF-7 human mammary carcinoma cells; assay: In-vitro antiproliferative activity, MTT test; assay type: cell-based; conditions: 5 days treatment, MTT on day 6, read-out: IC50, concentration necessary to reduce cell growth to 50% of control
Procedure: as §1

B16/F10 melanoma cells = assay: In-vivo antiproliferative activity: liver metastases after intraspleen implant of B16/F10 melanoma; design: species or system BD2F1 mice; conditions: for Animals free of macroscopically detectable liver metastases over total number of mice / Mice with metastases larger than 3 mm / Mice with more than 3 visible hepatic tumour nodules / Spleen weight: Day 21
Procedure: BD2F1 mice weighing 18-20 g were implanted intraspleen (i.s) with 100.000 B16/F10 melanoma cells on Day 0, under sterile conditions and Zoletil® (70 mg/kg), anaesthesia, following surgical opening of peritoneum and spleen immobilisation. Tumour cells, suspended in diluted Matrigel® (150 μg/ml), were injected i.s. in a volume of 0.05 ml. The B16F10 melanoma cells were cultured in Modified Eagle Medium. Cells were maintained in a humidified 5% CO2 atmosphere at 37° C. Animals were then randomly divided into 5 groups (each of 7-8 female), implanted i.s. with 100.000 B16/F10 melanoma cells on Day 0, were treated i.v. (on Days 3, 6 and 9) with HA-MTX at 2, 1 and 0.50 mg/kg/day or MTX-Na at 8.5, 6 and 3 mg/kg/day. Doses are referred to equivalents of MTX. The data originate from 4 separate experiments.
The evaluation of livers and counting of liver metastases under a low power stereo microscope equipped with a calibrated grid was performed on Day 21. Livers were then stored in formaldehyde for preparation for light microscopy observations.

[5] = 3 mg MTX/kg/die i.v. on days 3, 6, 9
[6] = 6 mg MTX/kg/die i.v. on days 3, 6, 9
[7] = 8.5 mg MTX/kg/die i.v. on days 3, 6, 9
[8] = 0.5 mg MTX/kg/die i.v. on days 3, 6, 9
[9] = 1 mg MTX/kg/die i.v. on days 3, 6, 9
[10] = 2 mg MTX/kg/die i.v. on days 3, 6, 9

6-O-Butyryl-6-O-methotrexyl-hyaluronic acid [Ex 24]
IC50 [1]: 2110 nM | IC50 [2]: 2160 nM | IC50 [3]: 1670 nM | IC50 [4]: 1700 nM

6-O-acetyl-6-O-methotrexyl-hyaluronic acid [Ex 21]
IC50 [1]: 2050 nM | IC50 [2]: 2740 nM | IC50 [3]: 1820 nM | IC50 [4]: 1970 nM

CN(Cc1cnc2nc(N)nc(N)c2n1)c1ccc(C(=O)N[C@@H](CCC(=O)O)C(=O)O)cc1 [MTX-Na, methotrexate, reference compound]
Animals free of macroscopically detectable liver metastases over total number of mice (B16/F10 melanoma cells; [5]): 6/16* | Mice with metastases larger than 3 mm (B16/F10 melanoma cells; [5]): 19% | Mice with more than 3 visible hepatic tumour nodules (B16/F10 melanoma cells; [5]): 38% | Spleen weight (B16/F10 melanoma cells; [5]): 227 ± 36 mg | Animals free of macroscopically detectable liver metastases over total number of mice (B16/F10 melanoma cells; [6]): 7/14** | Mice with metastases larger than 3 mm (B16/F10 melanoma cells; [6]): 0% | Mice with more than 3 visible hepatic tumour nodules (B16/F10 melanoma cells; [6]): 21% | Spleen weight (B16/F10 melanoma cells; [6]): 159 ± 7 mg | Animals free of macroscopically detectable liver metastases over total number of mice (B16/F10 melanoma cells; [7]): 8/16** | Mice with metastases larger than 3 mm (B16/F10 melanoma cells; [7]): 0% | Mice with more than 3 visible hepatic tumour nodules (B16/F10 melanoma cells; [7]): 13% | Spleen weight (B16/F10 melanoma cells; [7]): 149 ± 24 mg | IC50 [1]: 500 nM | IC50 [2]: 140 nM | IC50 [3]: 41 nM | IC50 [4]: 81 nM

HA-MTX [Ex 18]
Animals free of macroscopically detectable liver metastases over total number of mice (B16/F10 melanoma cells; [8]): 6/15** | Mice with metastases larger than 3 mm (B16/F10 melanoma cells; [8]): 13% | Mice with more than 3 visible hepatic tumour nodules (B16/F10 melanoma cells; [8]): 27% | Spleen weight (B16/F10 melanoma cells; [8]): 155 ± 16 mg | Animals free of macroscopically detectable liver metastases over total number of mice (B16/F10 melanoma cells; [9]): 9/16*** | Mice with metastases larger than 3 mm (B16/F10 melanoma cells; [9]): 0% | Mice with more than 3 visible hepatic tumour nodules (B16/F10 melanoma cells; [9]): 31% | Spleen weight (B16/F10 melanoma cells; [9]): 199 ± 27 mg | Animals free of macroscopically detectable liver metastases over total number of mice (B16/F10 melanoma cells; [10]): 14/14***^§ | Mice with metastases larger than 3 mm (B16/F10 melanoma cells; [10]): 0%^; 0%° | Mice with more than 3 visible hepatic tumour nodules (B16/F10 melanoma cells; [10]): 0%^; 0%° | Spleen weight (B16/F10 melanoma cells; [10]): 150 ± 37 mg | Dose giving comparable liver metastasis reduction, as fraction of the MTX-Na dose (B16/F10 melanoma cells; 1 and 0.5 mg/kg/day vs 6 and 3 mg/kg/day MTX-Na): ⅙ | Prevention of formation of liver metastasis (B16/F10 melanoma cells; both after i.v. and i.p. administration): effective in preventing the formation of liver metastasis | Effect on liver metastases of B16/F10 melanoma (B16/F10 melanoma cells; i.v. 2 mg/kg/day (MTX equivalents) on days 3,6,9): complete disappearance of liver metastases
